Marks after values point to notes of the source that are not given here.
How the values were obtained:
[1] = target: T1, HDAC10 (Homo sapiens, UniProt Q969S8); test: Cellular NanoBRET assay, HDAC10; format: cell-based
T1 construct: expressed in transfected cells

[2] = Caverage in mice with STK11-deleted MC38 tumors; format: in vivo, mouse; settings: doses used in FIG. 12B and 12C

T1 sequence (Q969S8 whole entry): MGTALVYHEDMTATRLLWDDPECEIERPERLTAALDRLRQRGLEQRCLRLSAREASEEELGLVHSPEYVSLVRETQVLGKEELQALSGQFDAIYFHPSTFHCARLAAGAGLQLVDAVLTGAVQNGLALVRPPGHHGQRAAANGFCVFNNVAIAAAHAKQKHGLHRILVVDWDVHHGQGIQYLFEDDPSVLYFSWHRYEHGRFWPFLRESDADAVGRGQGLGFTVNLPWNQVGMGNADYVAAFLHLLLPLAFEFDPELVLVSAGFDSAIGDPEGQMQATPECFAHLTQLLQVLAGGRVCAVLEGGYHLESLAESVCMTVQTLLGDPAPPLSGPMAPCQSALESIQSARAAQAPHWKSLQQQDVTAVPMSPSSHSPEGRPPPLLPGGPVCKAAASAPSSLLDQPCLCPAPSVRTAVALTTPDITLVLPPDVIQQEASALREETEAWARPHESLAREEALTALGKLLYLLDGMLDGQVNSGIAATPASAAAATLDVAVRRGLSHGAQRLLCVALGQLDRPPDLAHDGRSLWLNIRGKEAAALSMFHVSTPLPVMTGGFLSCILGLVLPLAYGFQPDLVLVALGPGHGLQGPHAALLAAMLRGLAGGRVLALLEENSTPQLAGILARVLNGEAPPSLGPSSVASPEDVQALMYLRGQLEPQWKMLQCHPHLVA

Row | IC50 [1] [µM] | Cavg, u [2] | SMILES
1 | > 30 | – | Nc1cc(F)ccc1NC(=O)c1ccc(CNC(=O)/C=C/c2cccnc2)cc1 [Chidamide, reference compound]
2 | – | 0.132* uM | O=C(CCCCCCC(=O)Nc1ccccc1)NO [Vorinostat, reference compound]

— patent US20260041653A1, “AN HDAC INHIBITOR FOR TREATING CANCER WITH A MODIFIED STK11 ACTIVITY OR EXPRESSION” (Tango Therapeutics, Inc., priority 2022, published 2026)
